From patent US6620801B2, “17β-amino and hydroxylamino-11β-arylsteroids and their derivatives having agonist or antagonist hormonal properties” (Research Triangle Institute, priority 1998, dated 2003)

Assays:
[1] = biological target: T1, human progesterone hormone receptor (Homo sapiens, UniProt P06401); assay: Receptor binding, inhibition of [3H]-R5020 binding in T-47D cytosol; settings: cytosol from human T-47D breast cells, 0.4 nM [3H]-R5020, 4 hours at 4° C.; read-out: Relative Binding Affinity hPR IC50
T1 construct: The receptor was obtained in cytosol from human T-47D breast cells and [^3H]-R5020 was used as the radioligand; endogenous in cells; host or cells: human T-47D breast cells (cytosol, 34,000 x g supernatant)
T1 sequence (P06401 1-933): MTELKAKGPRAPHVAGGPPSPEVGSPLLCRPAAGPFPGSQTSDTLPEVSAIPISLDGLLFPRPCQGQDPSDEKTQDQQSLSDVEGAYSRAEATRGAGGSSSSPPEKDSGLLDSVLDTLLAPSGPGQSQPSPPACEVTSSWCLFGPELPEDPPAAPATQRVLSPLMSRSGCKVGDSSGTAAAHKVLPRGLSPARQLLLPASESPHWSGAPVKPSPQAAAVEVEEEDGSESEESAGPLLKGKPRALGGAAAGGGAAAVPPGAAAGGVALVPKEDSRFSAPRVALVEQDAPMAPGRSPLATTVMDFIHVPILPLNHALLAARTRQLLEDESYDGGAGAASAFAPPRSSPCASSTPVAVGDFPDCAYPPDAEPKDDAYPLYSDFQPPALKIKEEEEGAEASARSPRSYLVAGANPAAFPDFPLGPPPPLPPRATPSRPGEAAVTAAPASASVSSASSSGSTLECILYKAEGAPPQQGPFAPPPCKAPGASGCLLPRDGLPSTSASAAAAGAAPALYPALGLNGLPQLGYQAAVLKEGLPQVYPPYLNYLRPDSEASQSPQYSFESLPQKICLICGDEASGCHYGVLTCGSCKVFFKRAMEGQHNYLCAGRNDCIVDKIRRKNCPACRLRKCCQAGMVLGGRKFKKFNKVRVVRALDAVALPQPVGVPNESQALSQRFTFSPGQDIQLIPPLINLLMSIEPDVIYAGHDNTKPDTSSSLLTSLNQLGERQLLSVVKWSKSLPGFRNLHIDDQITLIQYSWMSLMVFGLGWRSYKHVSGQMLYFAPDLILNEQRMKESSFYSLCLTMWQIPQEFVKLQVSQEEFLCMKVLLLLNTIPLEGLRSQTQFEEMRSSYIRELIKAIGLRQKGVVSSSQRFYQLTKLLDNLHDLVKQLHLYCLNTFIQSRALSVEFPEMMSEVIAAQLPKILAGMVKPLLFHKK
Procedure: The receptor was obtained in cytosol from human T-47D breast cells and [^3H]-R5020 was used as the radioligand. T47D cells (1 billion/ml) were homogenized in TEDG buffer (10 mM Tris, 1.5 mM EDTA, 1 mM dithiothreitol, 1 mM sodium molybdate, and 10% glycerol) using a Dounce pestle A, and the homogenate was centrifuged at 34,000×g for 1 hour. The supernatant was stored at −80° C. An aliquot of receptor preparation was combined with test compound, 0.4 nM [^3H]-R5020, and TEDG buffer to a final volume of 150 μL and incubated for 4 hours at 4° C. in microtiter plates. At the end of incubation 40 μL 40% polyethylene glycol and 15 μL 1% human gamma globulin was added to the incubate and the contents of each well were harvested onto double thick B filter mats (Wallac LKB) using a TomTec harvester. A film of Meltilux scintillant wax was applied to the dried filter mats and the mats were counted in a scintillation counter to determine inhibition of [^3H]-R5020 binding. Data are expressed as IC50 values, i.e., the concentration of compound that inhibits radioligand binding by 50%.

rabbits [2] = assay: McGinty test (progestational/agonist activity, McPhail score); type: in vivo; parameters: McPhail Index, McGinty Assay (Agonist): scale not given here; settings: rabbit; for McPhail Index, McGinty Assay (Agonist): test compound alone
Description: (§1) Results were scored according to McPhail (McPhail, J. Physiol., 83: 146 (1934)). These are standard procedures well-known to those skilled in the art. The results of these assays are shown in Tables 2 (agonist activity) and 3 (antagonist activity). […] Some compounds were extremely potent in this regard.

rabbits [3] = assay: Anti-McGinty test (antiprogestational/antagonist activity, test compound plus progesterone, McPhail score); type: in vivo; parameters: McPhail Index, Anti-McGinty Assay (Antagonist): scale not given here; settings: rabbit; for McPhail Index, Anti-McGinty Assay (Antagonist): test compound plus progesterone; for Blocking the action of progesterone in the anti-McGinty assay: dose of only 0.3 μg
Description: as §1

immature female rabbits = assay: Anti-estrogenic activity, uterine weight in estradiol-treated immature female rabbits; type: in vivo, rabbit; settings: ± S.E., no estradiol 216.7±37.2 mg

Compound	IC50 [1]	McPhail Index, McGinty Assay (Agonist) (rabbits [2]; dose 0.3 micrograms)	McPhail Index, McGinty Assay (Agonist) (rabbits [2]; dose 3 micrograms)	McPhail Index, McGinty Assay (Agonist) (rabbits [2]; dose 30 micrograms)	McPhail Index, Anti-McGinty Assay (Antagonist) (rabbits [3]; dose 0.3 micrograms)	McPhail Index, Anti-McGinty Assay (Antagonist) (rabbits [3]; dose 3 micrograms)	McPhail Index, Anti-McGinty Assay (Antagonist) (rabbits [3]; dose 30 micrograms)	Blocking the action of progesterone in the anti-McGinty assay (rabbits [3])	Uterine weight (immature female rabbits; compound orally at 10 mg/day concurrently with 5 μg of estradiol per day)	Progestational (agonist) activity in the McGinty assay (rabbits [2]; at high doses)	Progestational (agonist) activity in the anti-McGinty assay (rabbits [3]; at the highest dose)	Uterine weight (immature female rabbits; estradiol alone, 5 μg per day)
CC1CCC2(CCC3C4CCC5=CC(=O)CCC5=C4C(c4ccc(N(C)C)cc4)CC32C)N1O (stereo not drawn) [11β-[4-(N,N-Dimethylamino)phenyl]-1′-hydroxy-5′-methyl-spiro[estra-4,9-dien-17β,2′-pyrrolidine]-3-one]	5.2 nM	0 ± 0	0 ± 0	0 ± 0	2.1 ± 0.3	2.4 ± 0.4	0.7 ± 0.4	–	–	–	–	–
CN(C)c1ccc(C2CC3(C)C(CCC34CCCN4O)C3CCC4=CC(=O)CCC4=C23)cc1 (stereo not drawn) [11β-[4-(N,N-Dimethylamino)phenyl]-1′-hydroxy-spiro[estra4,9-dien-17β,2′-pyrrolidine]-3-one]	3.5 nM	0 ± 0	0 ± 0	0 ± 0	2.7 ± 0.0	2.3 ± 0.5	0.07 ± 0.07	–	–	–	–	–
CC#C[C@]1(NC=O)CC[C@H]2[C@@H]3CCC4=CC(=O)CCC4=C3[C@@H](c3ccc(N(C)C)cc3)C[C@@]21C [11β-[4-(N,N-Dimethylamino)phenyl]-17β-(N-formamido)-17α-(1-propynyl)estra-4,9-dien-3-one]	0.7 nM	0 ± 0	0 ± 0	0 ± 0	0 ± 0	0 ± 0	0 ± 0	completely effective in blocking the action of progesterone	716 ± 96.6 mg	–	–	–
CC#CC1(N(C)O)CCC2C3CCC4=CC(=O)CCC4=C3C(c3ccc(N(C)C)cc3)CC21C (stereo not drawn) [11β-[4-(N,N-Dimethylamino)phenyl]-17β-(N-hydroxy-N-methylamino)-17α-(1-propynyl)estra-4,9-dien-3-one]	7.1 nM	0 ± 0	0 ± 0	0 ± 0	2.0 ± 0.2	0 ± 0	0 ± 0	–	–	–	–	–
CC#C[C@]1(NO)CC[C@H]2[C@@H]3CCC4=CC(=O)CCC4=C3[C@@H](c3ccc(N(C)C)cc3)C[C@@]21C [11β-[4-(N,N-Dimethylamino)phenyl]-17β-(N-hydroxylamino)-17α-(1-propynyl)estra-4,9-dien-3-one]	14.3 nM	0 ± 0	0 ± 0	0.7 ± 0.0	0 ± 0	0 ± 0	2.5 ± 0.4	completely effective in blocking the action of progesterone	–	some progestational (agonist) activity	some progestational (agonist) activity	–
CC#CC1(NC(C)=O)CCC2C3CCC4=CC(=O)CCC4=C3C(c3ccc(N(C)C)cc3)CC21C (stereo not drawn) [17β-(N-Acetamido)-11β-[4-(N,N-dimethylamino)phenyl]-17α-(1-propynyl)estra-4,9-dien-3-one]	1.3 nM	0 ± 0	0 ± 0	0 ± 0	1.8 ± 0.3	0.1 ± 0.1	0 ± 0	–	–	–	–	–
CC#C[C@]1(N)CC[C@H]2[C@@H]3CCC4=CC(=O)CCC4=C3[C@@H](c3ccc(N(C)C)cc3)C[C@@]21C [17β-Amino-11β-[4-(N,N-dimethylamino)phenyl]-17α-(1-propynyl)estra-4,9-dien-3-one]	8.3 nM	0 ± 0	0 ± 0	0 ± 0	1.6 ± 0.3	0.2 ± 0.1	0 ± 0	–	–	–	–	–
C[C@]12CC[C@@H]3c4ccc(O)cc4CC[C@H]3[C@@H]1CC[C@@H]2O [estradiol, reference compound]	–	–	–	–	–	–	–	–	–	–	–	1337 ± 105 mg
